Results as given in US8236762B2, “Peptide-cytotoxic conjugates” (IPSEN Pharma S.A.S., priority 2006, dated 2012).
Read-outs that look alike come from different tables or passages of the source. Numbered stars: 1 amine (or outer) side, 2 acyl side, 3 side chain; on linkers, the order of the positions; unused ones are H or OH. Square brackets hold non-standard residues; d marks the D form. Peptide text beside a SMILES is read from it. * marks the point of attachment. Pipz(1-CH2CO,4-CH2CH2NH) = O=C(CN1CCN(CCN[*:1])CC1)[*:2]; X1 = CC[C@@]1(O*)C(=O)OCc2c1cc1n(c2=O)Cc2cc3ccccc3nc2-1; Suc = O=C(CCC(=O)[*:2])[*:1]; Nle = CCCC[C@H](N)C(=O)O; AEEA = NCCOCCOCC(=O)O; GABA = NCCCC(=O)O; βAla = NCCC(=O)O

Experiments:
[1] = Half-life determination in mouse plasma (LC-MS); type: in vitro ADME; conditions: 37° C.
Method: (§1) Samples containing approximately 50 μg/ml up to and including approximately 500 μg/ml of test compound according to Formula IA or IB or II was added to 450 μl human or mouse plasma, vortexed briefly and incubated at 37° C. At various time intervals, e.g., 0, 0.5, 1, 2, 4, 6, 8, 24, 36 and 48 hours, 50 μl of the compound-plasma mixture was added to 150 μl acetonitrile in a microcentrifuge tube. The mixture was vortexed, centrifuged for 5 minutes at 10K RPM, and 135 μl of supernatant was transferred to an injection vial. The recovered supernatant was analyzed by using a liquid chromatography-mass spectrophotometer system (LC-MS) consisting of a Finnigan Deca XP® mass spectrometer with an ESI probe at the positive ion mode. HPLC separation was carried out on a Luna 3μ C8 (2)® 3×50 mm column with a gradient decreasing from 100% A to 80% B for 10 minutes at a flow rate of 0.25 ml/min. Buffer A was 0.1% acetic acid in water and buffer B was 0.1% acetic acid acetonitrile.

[2] = Half-life determination in human plasma (LC-MS); type: in vitro ADME; conditions: 37° C.
Method: as §1

hSSTR-1 = biological target: T1, hSSTR-1 (Homo sapiens, UniProt P30872); experiment: Somatostatin receptor radioligand binding, hSSTR-1 (CHO-K1 membranes); conditions: read-out: Ki hSSTR1 ± (SEM)
T1 construct: expressed in transfected cells; host or cells: CHO-K1
Method: Membranes for in vitro receptor binding assays were obtained by homogenizing (Polytron setting 6, 15 sec) CHO-K1 cells expressing human somatostatin receptor subtypes hSSTR-1, hSSTR-2, hSSTR-3, hSSTR-4 or hSSTR-5 in ice-cold 50 mM Tris-HCl. The homogenized cells were centrifuged twice at 39,000 g for 10 minutes with an intermediate resuspension in fresh buffer. The final pellets were resuspended in 10 mM Tris-HCl to prepare the cell membrane homogenate for use in the binding assay.
The final assay volume was 0.3 ml.
The cell membrane homogenate was incubated with the radioligands for 90 minutes at 25° C. The incubations were terminated by rapid filtration through GF/C filters pre-soaked in 0.3% polyethylenimine using a Brandel® filtration manifold (Gaithersberg, Md., U.S.A.). Each tube and filter was washed three times with 5-ml aliquots of ice-cold buffer. Specific binding was defined as the total radioligand bound minus that bound in the presence of 1000 nM SRIF-14 (for hSSTR-1, hSSTR-3, hSSTR-4 or hSSTR-5), or 1000 nM DPhe-c(Cys-Tyr-D-Trp-Lys-Abu-Cys)-Thr-NH2 for hSSTR-2.

hSSTR-3 = biological target: T2, hSSTR-3 (Homo sapiens, UniProt P32745); experiment: Somatostatin receptor radioligand binding, hSSTR-3 (CHO-K1 membranes); conditions: read-out: Ki hSSTR3 ± (SEM)
T2 construct: expressed in transfected cells; host or cells: CHO-K1
Method: For the hSSTR-1, hSSTR-3, and hSSTR-4 assays, aliquots of the membrane preparations were incubated for 90 minutes at 25° C. with 0.05 nM [^125I-Tyr11]SRIF-14 in 50 mM HEPES (pH 7.4) buffer containing 0.2% BSA and 5 mM MgCl2. The final assay volume was 0.3 ml. For the hSSTR-2 and hSSTR-5 assays, [^125I]-[4-(2-hydroxyethyl)]-1-piperazinylacetyl-D-Phe-c(Cys-Tyr-D-Trp-Lys-Abu-Cys)-Thr-NH2 (0.05 nM) and [^125I]-D-Phe-c(Cys-Tyr-D-Trp-Lys-Val-Cys)-Thr-NH2 were employed as the radioligands, respectively.

hSSTR-4 = biological target: T3, hSSTR-4 (Homo sapiens, UniProt P31391); experiment: Somatostatin receptor radioligand binding, hSSTR-4 (CHO-K1 membranes); conditions: read-out: Ki hSSTR4 ± (SEM)
T3 construct: expressed in transfected cells; host or cells: CHO-K1

bombesin/GRP receptor = biological target: T4, bombesin/GRP receptor (Rattus norvegicus, UniProt P52500); experiment: Bombesin/GRP radioligand binding (AR42J rat pancreas cell membranes); conditions: read-out: Ki bombesin receptor ± (SEM)
T4 construct: AR42J rat pancreas cells expressing the native bombesin/GRP receptor; endogenous in cells; host or cells: AR42J rat pancreas cells
Method: Membranes were prepared for radioligand binding studies by homogenization of AR42J rat pancreas cells expressing the native bombesin/GRP receptor in 20 ml of ice-cold 50 mM Tris-HCl with a Brinkman Polytron® (Westbury, N.Y., U.S.A.) at settings of 6, 15 seconds. The homogenates were washed twice by centrifugation (39,000 g/10 minutes) and the final pellets were resuspended in 50 mM Tris-HCl containing 2.5 mM MgCl2 and 0.1% BSA. […] The filters were then washed three times with 5-ml aliquots of ice-cold 50 mM Tris-HCl. The bound radioactivity trapped on the filters was counted by gamma spectrometry (Wallac LKB®, Gaithersburg, Md., U.S.A.).

[3] = [125I-Tyr11]SRIF-14, value of 1000 indicates at least 1000

T2 sequence (P32745 whole entry): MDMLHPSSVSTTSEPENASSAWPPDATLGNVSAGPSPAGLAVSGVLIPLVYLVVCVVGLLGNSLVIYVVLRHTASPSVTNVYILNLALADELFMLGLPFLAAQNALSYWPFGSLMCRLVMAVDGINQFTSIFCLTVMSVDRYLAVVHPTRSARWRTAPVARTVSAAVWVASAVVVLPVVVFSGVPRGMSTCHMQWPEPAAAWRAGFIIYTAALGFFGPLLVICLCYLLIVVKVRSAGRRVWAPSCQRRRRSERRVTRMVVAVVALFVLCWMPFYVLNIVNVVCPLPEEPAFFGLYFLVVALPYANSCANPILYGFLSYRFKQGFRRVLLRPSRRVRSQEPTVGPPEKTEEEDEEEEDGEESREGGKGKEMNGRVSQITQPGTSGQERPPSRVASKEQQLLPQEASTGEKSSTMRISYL
T1 sequence (P30872 whole entry): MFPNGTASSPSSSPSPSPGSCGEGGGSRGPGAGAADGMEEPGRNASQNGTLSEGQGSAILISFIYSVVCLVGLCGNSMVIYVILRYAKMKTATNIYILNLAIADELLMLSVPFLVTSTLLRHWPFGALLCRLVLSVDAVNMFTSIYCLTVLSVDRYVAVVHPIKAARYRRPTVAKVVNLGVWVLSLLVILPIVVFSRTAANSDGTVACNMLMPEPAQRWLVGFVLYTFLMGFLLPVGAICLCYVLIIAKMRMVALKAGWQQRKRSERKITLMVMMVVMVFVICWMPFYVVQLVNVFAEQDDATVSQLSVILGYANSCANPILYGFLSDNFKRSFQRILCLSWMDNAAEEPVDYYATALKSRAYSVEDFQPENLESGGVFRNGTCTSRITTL
T3 sequence (P31391 whole entry): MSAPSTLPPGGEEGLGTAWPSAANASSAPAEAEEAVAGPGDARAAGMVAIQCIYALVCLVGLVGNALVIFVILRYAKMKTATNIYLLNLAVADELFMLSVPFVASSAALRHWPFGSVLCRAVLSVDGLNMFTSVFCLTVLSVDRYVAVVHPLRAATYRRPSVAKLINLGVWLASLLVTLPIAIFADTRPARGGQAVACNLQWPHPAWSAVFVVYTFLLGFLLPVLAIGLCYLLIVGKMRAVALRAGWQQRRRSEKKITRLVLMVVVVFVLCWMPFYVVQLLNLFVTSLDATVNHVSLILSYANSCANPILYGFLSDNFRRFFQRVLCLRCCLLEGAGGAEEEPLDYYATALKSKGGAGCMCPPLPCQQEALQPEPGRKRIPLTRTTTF
T4 sequence (P52500 whole entry): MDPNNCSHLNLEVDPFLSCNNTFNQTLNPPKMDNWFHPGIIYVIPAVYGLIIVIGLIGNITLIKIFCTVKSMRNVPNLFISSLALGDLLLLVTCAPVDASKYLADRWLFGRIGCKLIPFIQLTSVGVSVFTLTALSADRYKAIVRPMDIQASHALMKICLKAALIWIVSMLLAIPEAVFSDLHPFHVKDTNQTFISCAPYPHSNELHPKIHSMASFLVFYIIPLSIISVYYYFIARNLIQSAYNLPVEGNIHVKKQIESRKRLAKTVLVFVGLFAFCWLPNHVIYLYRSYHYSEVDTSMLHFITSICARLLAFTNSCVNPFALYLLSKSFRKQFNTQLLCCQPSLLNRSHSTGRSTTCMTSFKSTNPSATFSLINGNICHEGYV

| Compound | half-life [1] [h] | half-life [2] [h] | Ki (hSSTR-1) [nM] | Ki (hSSTR-3) [nM] | Ki (hSSTR-4) [nM] | Ki (bombesin/GRP receptor) [nM] | Ki (hSSTR-1; [3]) [nM] | Ki (hSSTR-3; [3]) [nM] | Ki (hSSTR-4; [3]) [nM] |
| --- | --- | --- | --- | --- | --- | --- | --- | --- | --- |
| CC[C@@H]1NC(=O)[C@H](CCCCN)NC(=O)[C@@H](Cc2c[nH]c3ccccc23)NC(=O)[C@H](Cc2ccc(O)cc2)NC(=O)[C@@H](NC(=O)[C@@H](Cc2ccccc2)NC(=O)CN2CCN(CCNC(=O)COCCOCCNC(=O)COCCOCCNC(=O)COCCOCCNC(=O)COCCOCCNC(=O)CCC(=O)N[C@@H](CC3CCCCC3)C(=O)O[C@]3(CC)C(=O)OCc4c3cc3n(c4=O)Cc4cc5ccccc5nc4-3)CC2)CSSC[C@@H](C(=O)N[C@H](C(N)=O)[C@@H](C)O)NC1=O [Example 1, Camptothecin-rvCha-Suc-(Doc)4-Aepa-DPhe-c(Cys-Tyr-DTrp-Lys-Abu-Cys)-Thr-NH2] | 2 | 4.7 | ≥ 1000 | 155 | ≥ 1000 | – | – | – | – |
| CCCC[C@H](NC(=O)[C@H](CC(C)C)NC(=O)[C@H](Cc1c[nH]cn1)NC(=O)CCNC(=O)[C@@H](NC(=O)[C@H](C)NC(=O)[C@H](Cc1c[nH]c2ccccc12)NC(=O)[C@H](CCC(N)=O)NC(=O)CCCCCNC(=O)CN1CCN(CCNC(=O)COCCOCCNC(=O)COCCOCCNC(=O)COCCOCCNC(=O)COCCOCCNC(=O)CCC(=O)NCC(=O)O[C@]2(CC)C(=O)OCc3c2cc2n(c3=O)Cc3cc4ccccc4nc3-2)CC1)C(C)C)C(N)=O [Example 21, Camptothecin-rvGly-Suc-(Doc)4-Aepa-Ahx-Gln-Trp-Ala-Val-β-Ala-His-Leu-Nle-NH2] | 5.4 | 3.2 | – | – | – | 1.9 | – | – | – |
| CCCC[C@H](NC(=O)[C@H](CC(C)C)NC(=O)[C@H](Cc1c[nH]cn1)NC(=O)CCNC(=O)[C@@H](NC(=O)[C@H](C)NC(=O)[C@H](Cc1c[nH]c2ccccc12)NC(=O)[C@H](CCC(N)=O)NC(=O)[C@H](CC(N)=O)NC(=O)CCCNC(=O)CN1CCN(CCNC(=O)COCCOCCNC(=O)COCCOCCNC(=O)COCCOCCNC(=O)COCCOCCNC(=O)CCC(=O)NCC(=O)O[C@]2(CC)C(=O)OCc3c2cc2n(c3=O)Cc3cc4ccccc4nc3-2)CC1)C(C)C)C(N)=O [Example 23, Camptothecin-rvGly-Suc-(Doc)4-Aepa-Gaba-Asn-Gln-Trp-Ala-Val-β-Ala-His-Leu-Nle-NH2] ({X1-Gly-Suc-AEEA-AEEA-AEEA-AEEA}-[Pipz(1-CH2CO,4-CH2CH2NH)][GABA]NQWAV[βAla]HL[Nle]-NH2) | 2.9 | 4.2 | – | – | – | 7.65 | – | – | – |
| Camptothecin-rvD-Asp-Suc-(Doc)4-Aepa-D-Phe-c(Cys-Tyr-D-Trp-Lys-Abu-Cys)-Thr-NH2 Camptothecin-rvAsp-Suc-(Doc)4-Aepa-D-Phe-c(Cys-Tyr-D-Trp-Lys-Abu-Cys)-Thr-NH2 [5A′] | – | – | – | – | – | – | ≥ 1000 | ≥ 1000 | ≥ 1000 |
| CC[C@@H]1NC(=O)[C@H](CCCCN)NC(=O)[C@@H](Cc2c[nH]c3ccccc23)NC(=O)[C@H](Cc2ccc(O)cc2)NC(=O)[C@@H](NC(=O)[C@@H](Cc2ccccc2)NC(=O)CN2CCN(CCNC(=O)COCCOCCNC(=O)COCCOCCNC(=O)COCCOCCNC(=O)COCCOCCNC(=O)CCC(=O)N[C@H](C(=O)O[C@]3(CC)C(=O)OCc4c3cc3n(c4=O)Cc4cc5ccccc5nc4-3)C(C)C)CC2)CSSC[C@@H](C(=O)N[C@H](C(N)=O)[C@@H](C)O)NC1=O [Example 15, Camptothecin-rvVal-Suc-(Doc)4-Aepa-D-Phe-c(Cys-Tyr-D-Trp-Lys-Abu-Cys)-Thr-NH2] | 5 | 0.4 | ≥ 1000 | – | ≥ 1000 | – | – | – | – |
| CC[C@@H]1NC(=O)[C@H](CCCCN)NC(=O)[C@@H](Cc2c[nH]c3ccccc23)NC(=O)[C@H](Cc2ccc(O)cc2)NC(=O)[C@@H](NC(=O)[C@@H](Cc2ccccc2)NC(=O)CN2CCN(CCNC(=O)COCCOCCNC(=O)COCCOCCNC(=O)COCCOCCNC(=O)COCCOCCNC(=O)CCC(=O)N[C@@H](CCCNC(=N)N)C(=O)O[C@]3(CC)C(=O)OCc4c3cc3n(c4=O)Cc4cc5ccccc5nc4-3)CC2)CSSC[C@@H](C(=O)N[C@H](C(N)=O)[C@@H](C)O)NC1=O [Example 7, Camptothecin-rvArg-Suc-(Doc)4-Aepa-D-Phe-c(Cys-Tyr-D-Trp-Lys-Abu-Cys)-Thr-NH2] | 1.2 | 1.5 | ≥ 1000 | 479 | ≥ 1000 | – | – | – | – |
| CC[C@@H]1NC(=O)[C@H](CCCCN)NC(=O)[C@@H](Cc2c[nH]c3ccccc23)NC(=O)[C@H](Cc2ccc(O)cc2)NC(=O)[C@@H](NC(=O)[C@@H](Cc2ccccc2)NC(=O)CN2CCN(CCNC(=O)COCCOCCNC(=O)COCCOCCNC(=O)COCCOCCNC(=O)COCCOCCNC(=O)CCC(=O)N[C@@H](C(=O)O[C@]3(CC)C(=O)OCc4c3cc3n(c4=O)Cc4cc5ccccc5nc4-3)C(C)C)CC2)CSSC[C@@H](C(=O)N[C@H](C(N)=O)[C@@H](C)O)NC1=O [Example 13, Camptothecin-rvD-Val-Suc-(Doc)4-Aepa-D-Phe-c(Cys-Tyr-D-Trp-Lys-Abu-Cys)-Thr-NH2] | 7.7 | 0.3 | ≥ 1000 | – | ≥ 1000 | – | – | – | – |
| CC[C@@H]1NC(=O)[C@H](CCCCN)NC(=O)[C@@H](Cc2c[nH]c3ccccc23)NC(=O)[C@H](Cc2ccc(O)cc2)NC(=O)[C@@H](NC(=O)[C@@H](Cc2ccccc2)NC(=O)CN2CCN(CCNC(=O)COCCOCCNC(=O)COCCOCCNC(=O)COCCOCCNC(=O)COCCOCCNC(=O)CCC(=O)N[C@@H](CNC(=O)OCc3ccccc3)C(=O)O[C@]3(CC)C(=O)OCc4c3cc3n(c4=O)Cc4cc5ccccc5nc4-3)CC2)CSSC[C@@H](C(=O)N[C@H](C(N)=O)[C@@H](C)O)NC1=O [Example 8, Camptothecin-rvDap(Z)-Suc-(Doc)4-Aepa-D-Phe-c(Cys-Tyr-D-Trp-Lys-Abu-Cys)-Thr-NH2] | 2.2 | 0.7 | ≥ 1000 | – | ≥ 1000 | – | – | – | – |
| CC[C@@H]1NC(=O)[C@H](CCCCN)NC(=O)[C@@H](Cc2c[nH]c3ccccc23)NC(=O)[C@H](Cc2ccc(O)cc2)NC(=O)[C@@H](NC(=O)[C@@H](Cc2ccccc2)NC(=O)CN2CCN(CCNC(=O)COCCOCCNC(=O)COCCOCCNC(=O)COCCOCCNC(=O)COCCOCCNC(=O)CCC(=O)N[C@H](CNC(=O)OCc3ccccc3)C(=O)O[C@]3(CC)C(=O)OCc4c3cc3n(c4=O)Cc4cc5ccccc5nc4-3)CC2)CSSC[C@@H](C(=O)N[C@H](C(N)=O)[C@@H](C)O)NC1=O [Example 9, Camptothecin-rvD-Dap(Z)-Suc-(Doc)4-Aepa-D-Phe-c(Cys-Tyr-D-Trp-Lys-Abu-Cys)-Thr-NH2] | 1.7 | 0.7 | ≥ 1000 | – | ≥ 1000 | – | – | – | – |
| CC[C@@H]1NC(=O)[C@H](CCCCN)NC(=O)[C@@H](Cc2c[nH]c3ccccc23)NC(=O)[C@H](Cc2ccc(O)cc2)NC(=O)[C@@H](NC(=O)[C@@H](Cc2ccccc2)NC(=O)CN2CCN(CCNC(=O)COCCOCCNC(=O)COCCOCCNC(=O)COCCOCCNC(=O)COCCOCCNC(=O)CCC(=O)N[C@@H](C)C(=O)O[C@]3(CC)C(=O)OCc4c3cc3n(c4=O)Cc4cc5ccccc5nc4-3)CC2)CSSC[C@@H](C(=O)N[C@H](C(N)=O)[C@@H](C)O)NC1=O [Example 14, Camptothecin-rvAla-Suc-(Doc)4-Aepa-D-Phe-c(Cys-Tyr-D-Trp-Lys-Abu-Cys)-Thr-NH2] | 4.6 | 1.3 | ≥ 1000 | ≥ 1000 | ≥ 1000 | – | – | – | – |
